Legend:
Type in all cases: in vivo
Male ICR mice [1] = assay: Forced swimming test (FST) scored by time-sampling method; conditions: day 1 and 8, post hoc vs control
Procedure: FST was conducted for two consecutive days. Mice were placed in a Plexiglas cylinder (33.5 cm height, 20 cm diameter) filled with 25±2° C. water to a height of 18-20 cm. For the first exposure, mice were placed in the water for 15 min (pre-test session) followed by […]. Twenty-four hours later (day 1 test session), various doses of test drug (at 0, 30 and 100 mg/kg) was administered 30 min prior to the ketamine (10 mg/kg) or saline. Then, the mice were tested 30 min after ketamine injection which placed in the water again for a 6 min session (test session), the first 2 minutes has elapsed. Immobility was assigned when no additional activity was observed other than that required to keep the head above the water.
The acute and sustained effects of various doses of ketamine (3, 10, 15 mg/kg) and betaine (10, 20, 30 mg/kg) on FST were assessed on day 1 and 8, respectively (FIGS. 1A and 1B). […] There was no significant effect of test session or interaction.

Male ICR mice [2] = assay: Emergence test
Procedure: The emergence test was examined in a test box (35×35×30 cm) contained an aluminum cylinder (10 cm deep×6.5 cm diameter) located lengthwise along one wall, with the open end 10 cm from the corner. The test drug (0, 30 and 100 mg/kg) or ketamine (10 mg/kg) was administered 30 min prior to the test. Mice were placed into the cylinder and tested for 10 min and scored three behavioral parameters: the latency to leave the cylinder, the number of entries into the cylinder and the total time spent inside the cylinder.

Male ICR mice [3] = assay: Open field test / locomotor activity
Procedure: To evaluate the effect of DMG on ketamine-induced locomotor hyperactivity, the animals were moved from the home cage, weighed and placed into an activity cage (Columbus Auto-Track System, Version 3.0 A, Columbus Institute, Columbus, Ohio, USA) for 2 hours. Thereafter, the test drug (0, 30, and 100 mg/kg) was given 30 min prior to ketamine (30 mg/kg) or saline. The distance (cm) traveled was recorded for totally 180 min. A 70% alcohol solution was used to clean the inner surface of all the testing apparatus between trials to remove any potentially interfering odors left by the previous mouse.

Male ICR mice [4] = assay: Novel object recognition test (NORT)
Procedure: The novel location recognition test (NLRT) and novel object recognition test (NORT) were examined in a Plexiglas open field box (35×35×30 cm) located in a sound-attenuated room and illuminated with a 20-W light bulb. The novel location and novel object recognition procedure consisted of habituation, training, and retention sessions. Habituation was conducted in two consecutive daily sessions, during which each mouse was allowed to individually explore the box in the absence of objects for 20 min. The animal is then removed from the arena and placed in its home cage. During the sample phase, each animal was placed in the box, and after 5 min, two identical sample objects (A+A) were simultaneously introduced in two corners. Each animal was allowed to explore the objects for 5 min. An animal was considered to explore the object when its head was facing the object at a distance of approximately 1 cm or less between the head and object or when it was touching or sniffing the object. The time spent exploring each object was recorded using stopwatches by an experimenter blind to the treatment condition.
After the sample phase, the mice were immediately returned to their home cages. The novel location recognition test was conducted 30 min after the training session. The animals were returned to the same box as during the sample phase, and one of the two objects was replaced with a novel local corner (A+A′) to test the location-based recognition memory. After 24 hours, novel object recognition test was performed. The mice are allowed to explore the open field with one identical sample object and a novel object to assess the novel object recognition memory (A+B). The animals were allowed to explore the box freely for 5 min, and the time spent exploring each object was recorded as described above. The objects and chambers were cleaned with 70% ethanol after each use. A preference index, a ratio of the amount of time spent exploring the original object or the novel location/object over the total time spent exploring both objects, was used to evaluate recognition memory. […]

Male ICR mice [5] = assay: Forced swim test (FST): duration of immobility, struggling and swimming; conditions: for duration of struggling in FST: betaine 20 mg/kg prior to ketamine 10 mg/kg
[6] = betaine 30 and 100 mg/kg alone, 60 min after administration

CNC1(c2ccccc2Cl)CCCCC1=O (racemic) [ketamine]
count of immobility in FST (Male ICR mice [1]; ketamine 3, 10 and 15 mg/kg): significantly decreased
total time spent inside the cylinder (Male ICR mice [2]; ketamine 10 mg/kg, post hoc): significantly reduced
total travel distances after ketamine administration (Male ICR mice [3]; ketamine 30 mg/kg, measured for 30 min): increased
recognition index (Male ICR mice [4]; ketamine 30 mg/kg, retention session (24 h)): significantly reduced

C[N+](C)(C)CC(=O)O [betaine]
count of immobility in FST (Male ICR mice [1]; betaine 20 and 30 mg/kg): significantly decreased
anxiolytic effect in the emergence test (Male ICR mice [2]; betaine 30 and 100 mg/kg): did not show anxiolytic effect
ketamine-induced locomotor hyperactivity (Male ICR mice [3]; betaine 30 and 100 mg/kg 30 min prior to ketamine 30 mg/kg): not affected
time in center (Male ICR mice [3]; [6]): did not affect
travel distances (locomotor activity) (Male ICR mice [3]; [6]): did not affect
duration of struggling in FST (Male ICR mice [5]; day 1 test session, vs control): significantly increased
duration of struggling in FST (Male ICR mice [5]; over both sessions): significantly increased
duration of swimming in FST (Male ICR mice [5]; betaine 10, 20 and 30 mg/kg pretreatment prior to ketamine 10 mg/kg, day 1 test session, vs control): significantly increased
duration of swimming in FST (Male ICR mice [5]; betaine 10, 20 and 30 mg/kg pretreatment prior to ketamine 10 mg/kg, over both sessions): significantly increased
duration of swimming in FST (Male ICR mice [5]; betaine 20 and 30 mg/kg, over both sessions): significantly increased
recognition impairing effects of ketamine (Male ICR mice [4]; betaine 30 and 100 mg/kg 30 min prior to ketamine 30 mg/kg, retention session): significantly reversed

— US11213495B2, “Method and composition for decreasing the psychotomimetic side effect and addictive disorder of ketamine” (NATIONAL HEALTH RESEARCH INSTITUTES, priority 2016, dated 2022)
